The values below come from patent US9725445B2, “Cycloalkyl nitrile pyrazolo pyridones as Janus kinase inhibitors” (Merck Sharp & Dohme Corp., priority 2013, dated 2017).

The target of one experiment is JAK1 (Homo sapiens (Human), UniProt P23458). Description: Jak biochemical HTRF assay, JAK1. Conditions: HTRF biochemical assay, recombinant GST-tagged catalytic domain; read-out: JAK1 IC50. (In general: In TR-FRET formats the signal depends on donor and acceptor labels being close together.)
The target in the next experiment is JAK2 (Homo sapiens (Human), UniProt O60674). Description: Jak biochemical HTRF assay, JAK2. Conditions: HTRF biochemical assay, recombinant GST-tagged catalytic domain; read-out: JAK2 IC50.
Sequence of JAK2 (O60674 849-1124): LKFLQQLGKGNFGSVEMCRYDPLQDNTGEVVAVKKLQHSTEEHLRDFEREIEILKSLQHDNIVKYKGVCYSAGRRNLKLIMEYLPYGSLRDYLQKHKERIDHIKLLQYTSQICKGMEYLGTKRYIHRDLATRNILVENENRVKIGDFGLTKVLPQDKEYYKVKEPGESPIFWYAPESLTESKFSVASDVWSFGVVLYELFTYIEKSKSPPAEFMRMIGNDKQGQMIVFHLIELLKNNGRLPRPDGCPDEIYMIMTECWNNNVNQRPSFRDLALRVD

Structures are written as SMILES.

Sequence of JAK1 (P23458 875-1153): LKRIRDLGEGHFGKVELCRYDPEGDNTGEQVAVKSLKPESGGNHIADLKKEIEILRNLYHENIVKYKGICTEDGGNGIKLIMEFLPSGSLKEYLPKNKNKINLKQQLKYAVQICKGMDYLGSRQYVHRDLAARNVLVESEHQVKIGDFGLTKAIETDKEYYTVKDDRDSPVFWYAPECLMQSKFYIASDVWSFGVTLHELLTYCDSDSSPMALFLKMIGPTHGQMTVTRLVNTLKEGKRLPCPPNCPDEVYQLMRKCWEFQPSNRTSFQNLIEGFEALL

As usually defined, the IC50 is the concentration that inhibits the measured activity by half. As for `N#C[C@H]1CCCC[C@@H]1n1nc(Nc2ccc(F)c(CN)c2)c2c(=O)[nH]ccc21` [Example 6-2, (1S,2S)-2-(3-((3-(aminomethyl)-4-fluorophenyl)amino)-4-oxo-4,5-dihydro-1H-pyrazolo[4,3-c]pyridin-1-yl)cyclohexanecarbonitrile], the figures for the IC50 on JAK1 and at JAK2 were 750 pM and 2300 pM, respectively.
In the case of `N#C[C@H]1CCCC[C@@H]1n1nc(Nc2cc(F)cc(CN)c2)c2c(=O)[nH]ccc21` [Example 6-3, (1S,2S)-2-(3-((3-(aminomethyl)-5-fluorophenyl)amino)-4-oxo-4,5-dihydro-1H-pyrazolo[4,3-c]pyridin-1-yl)cyclohexanecarbonitrile], the half-inhibitory concentration (IC50) at JAK1 worked out at 1400 pM; at JAK2 it was 2300 pM.
In the same order, the values of `CS(=O)(=O)c1ccc(Nc2nn([C@H]3CCCC[C@@H]3C#N)c3cc[nH]c(=O)c23)cc1CN` [Example 6-4, (1S,2S)-2-(3-((3-(aminomethyl)-4-(methylsulfonyl)phenyl)amino)-4-oxo-4,5-dihydro-1H-pyrazolo[4,3-c]pyridin-1-yl)cyclohexanecarbonitrile] are 1000 pM and 2900 pM.
In the same order, the values of `N#C[C@H]1CCCC[C@@H]1n1nc(Nc2ccc(CN)cc2)c2c(=O)[nH]ccc21` [Example 6-5, (1S,2S)-2-(3-((4-(aminomethyl)phenyl)amino)-4-oxo-4,5-dihydro-1H-pyrazolo[4,3-c]pyridin-1-yl)cyclohexanecarbonitrile] are 460 pM and 820 pM.
In the same order, the values of `N#C[C@H]1CCCC[C@@H]1n1nc(Nc2cccc([C@H](N)C(F)(F)F)c2)c2c(=O)[nH]ccc21` [Example 7-1, (1S,2S)-2-(3-((3-((S)-1-Amino-2,2,2-trifluoroethyl)phenyl)amino)-4-oxo-4,5-dihydro-H-pyrazolo[4,3-c]pyridin-1-yl)cyclohexanecarbonitrileecarbonitrile] are 610 pM and 1500 pM.
In the case of `N#C[C@H]1CCCC[C@@H]1n1nc(Nc2cccc([C@@H](N)C(F)(F)F)c2)c2c(=O)[nH]ccc21` [Example 7-2, (1S,2S)-2-[3-({3-[(1R)-1-amino-2,2,2-trifluoroethyl]phenyl}amino)-4-oxo-4,5-dihydro-1H-pyrazolo[4,3-c]pyridin-1-yl]cyclohexanecarbonitrile], the half-inhibitory concentration (IC50) at JAK1 turned out to be 260 pM; on JAK2, 2200 pM.
For `N#C[C@H]1CCCC[C@@H]1n1nc(Nc2ccc([C@@H](N)C(F)(F)F)cc2)c2c(=O)[nH]ccc21` [Example 7-3, (1S,2S)-2-[3-({4-[(1R)-1-amino-2,2,2-trifluoroethyl]phenyl}amino)-4-oxo-4,5-dihydro-1H-pyrazolo[4,3-c]pyridin-1-yl]cyclohexanecarbonitrile], the concentration for half-maximal inhibition (IC50) came to 120 pM on JAK1 and 370 pM at JAK2.
In the case of `N#C[C@H]1CCCC[C@@H]1n1nc(Nc2ccc([C@H](N)C(F)(F)F)cc2)c2c(=O)[nH]ccc21` [Example 7-4, (1S,2S)-2-[3-({4-[(1S)-1-amino-2,2,2-trifluoroethyl]phenyl}amino)-4-oxo-4,5-dihydro-1H-pyrazolo[4,3-c]pyridin-1-yl]cyclohexanecarbonitrile], the IC50 is 110 pM at JAK1 and 410 pM at JAK2.
`CC(O)(CO)c1cccc(Nc2nn([C@H]3CCCC[C@@H]3C#N)c3cc[nH]c(=O)c23)c1` (stereo partly drawn) [Example 11-1, (1S,2S)-2-(3-((3-(1,2-Dihydroxypropan-2-yl)phenyl)amino)-4-oxo-4,5-dihydro-1H-pyrazolo[4,3-c]pyridin-1-yl)cyclohexanecarbonitrile]: the half-inhibitory concentration (IC50) is 2500 pM at JAK1 and 4000 pM on JAK2.
`N#C[C@H]1CCCC[C@@H]1n1nc(Nc2ccc3c(c2)CNC3)c2c(=O)[nH]ccc21` [Example 12-1, (1S,2S)-2-(3-(Isoindolin-5-ylamino)-4-oxo-4,5-dihydro-H-pyrazolo[4,3-c]pyridin-1-yl)cyclohexanecarbonitrile]: the IC50 is 310 pM at JAK1 and 860 pM on JAK2.
